Test results as given in patent US7642367B2, “Diamino-functional chalcones” (Lica Pharmaceuticals A/S, priority 2002, dated 2010).
In brackets after ≈: the same amount, converted by molar mass. Where two headings read alike, the source gives them in different places. Each block holds one compound with its values, some of them ahead of it.

Tests used:
[1] = system: Plasmodium falciparum 3D7; assay: Plasmodium falciparum assay (3H-phenylalanine labelling); type: cell-based
[2] = Determination of metabolic stability (liver microsomes); type: in vitro ADME, Wistar rat; details: for Metabolic turn-over in vitro: rat liver microsomes, 20 μM, 15 min at 37° C.
[3] = Determination of solubility in phosphate buffer pH 7.4; type: physicochemical; details: aqueous buffer at pH 7.4
Description: Solubility of the compounds was determined by preparing a saturated solution of compound in 0.3 M phosphate buffer (pH 7.4±0.3) in a brown glass tube. The suspensions were rotated slowly for 24 hours. Aliquots were centrifuged for 10 minutes at 14.000 rpm and supernatants were diluted in 40% (v/v) acetonitrile in water prior to HPLC analysis. Concentrations of analytes were quantified against a standard curve and used as term of solubility.
The HPLC-UV method used for the assessment of solubility is the same as used in the in vitro metabolism assay.

Plasmodium berghei K173 [4] = assay: Multiple intra venous administration in Plasmodium berghei K173 infected mice; type: in vivo; details: Plasmodium berghei K173 infected NMRI female mice, multiple intra venous administrations, FIG. 10
Description: The doses stated were administered intra venously as solutions in a suitable vehicle.

[5] = mice
[6] = system: Plasmodium falciparum DD2 (Cq-res); details: read-out: Plasmodium falciparum IC50
[7] = system: Plasmodium falciparum 7G8 (Cq-res); details: read-out: Plasmodium falciparum IC50
[8] = system: Plasmodium falciparum K1 (Cq-res); details: read-out: Plasmodium falciparum IC50
[9] = mice; remark: listed apart in the source
Plasmodium berghei K173 [10] = details: Plasmodium berghei K173 infected NMRI female mice, multiple oral administrations, FIG. 8

IC50 ([1]; Plasmodium falciparum 3D7 (Table 2), read-out: IC50): 600 nM
Metabolic turn-over in vitro [2]: 0%
Solubility [3]: 15400 µg/mL (≈ 42.1 mM)
SMILES: CN(C)CCN(C)c1cccc(/C=C/C(=O)c2ccccc2CN(C)C)c1 [B074, (E)-3-{3-[(2-Dimethylamino-ethyl)-methyl-amino]-phenyl}-1-(2-dimethylaminomethyl-phenyl)-propenone]
effect on parasitaemia (Plasmodium berghei K173 [4]): significant decrease in the parasitaemia

SMILES: COc1ccccc1-c1ccc(/C=C/C(=O)c2ccc(O)c(CN(C)C)c2)c(N2CCN(C)CC2)c1 [B098, (E)-1-(3-Dimethylaminomethyl-4-hydroxy-phenyl)-3-[2′-methoxy-3-(4-methyl-piperazin-1-yl)-biphenyl-4-yl]-propenone]
bioavailability [5]: 50%

SMILES: COc1ccc(C(=O)/C=C/c2cc(-c3ccccc3)cc(N3CCN(C)CC3)c2)c(CN(C)C)c1 [B111, (E)-1-(2-Dimethylaminomethyl-4-methoxy-phenyl)-3-[5-(4-methyl-piperazin-1-yl)-biphenyl-3-yl]-propenone]
IC50 ([1]; 3D7 (Cq-sen) (Table 3), read-out: Plasmodium falciparum IC50): 1600 nM
Metabolic turn-over in vitro [2]: 4%
Solubility [3]: 3100 µg/mL (≈ 6.6 mM)
IC50 [6]: 1000 nM
IC50 [7]: 1300 nM
IC50 [8]: 1000 nM

SMILES: Cc1ccccc1-c1cc(/C=C/C(=O)c2ccccc2CN(C)C)cc(N(C)CCN(C)C)c1 [B119, (E)-3-{5-[(2-Dimethylamino-ethyl)-methyl-amino]-2′-methyl-biphenyl-3-yl}-1-(2-dimethylaminomethyl-phenyl)-propenone]
metabolism ([2]; rat): 8.6%
Metabolic turn-over in vitro [2]: 9%
metabolism [9]: 75%
effect on infection (parasitaemia) (Plasmodium berghei K173 [10]): inhibit the development of the infection
